Test results taken from ChEMBL document CHEMBL1146716, “(4-Piperidinylphenyl)aminoethyl amides as a novel class of non-covalent cathepsin K inhibitors” (Bioorg Med Chem Lett, 2004).
Peptide text beside a SMILES is read from it. * marks the point of attachment. Cbz = O=C(OCc1ccccc1)*

Molecular target: Cathepsin B (Homo sapiens, UniProt P07858)
Assay: Inhibitory activity against recombinant human cathepsin B
Conditions: not given

Row | Ki | Compound
1 | 167 nM | O=C(N[C@H](Cc1ccccc1)C(=O)N[C@@H](CCc1ccccc1)CNc1ccc(N2CCCCC2)cc1)OCc1ccccc1
2 | 106 nM | O=C(N[C@H](Cc1ccc(O)cc1)C(=O)N[C@@H](CCc1ccccc1)CNc1ccc(N2CCCCC2)cc1)OCc1ccccc1
3 | 9660 nM | O=C(N[C@H](CCc1ccccc1)C(=O)N[C@@H](CCc1ccccc1)CNc1ccc(N2CCCCC2)cc1)OCc1ccccc1
4 | > 10000 nM | O=C(CNC(=O)OCc1ccccc1)N[C@@H](CCc1ccccc1)CNc1ccc(N2CCCCC2)cc1
5 | > 10000 nM | O=C(N[C@@H](CCc1ccccc1)CNc1ccc(N2CCCCC2)cc1)C1CCCN1C(=O)OCc1ccccc1 (stereo not given in full)
6 | 7 nM | CC(C)[C@@H](NC(=O)OCc1ccccc1)C(=O)N[C@@H](CCc1ccccc1)CNc1ccc(N2CCCCC2)cc1
7 | 12 nM | CSCC[C@@H](NC(=O)OCc1ccccc1)C(=O)N[C@@H](CCc1ccccc1)CNc1ccc(N2CCCCC2)cc1
8 | 2090 nM | C[C@@H](NC(=O)OCc1ccccc1)C(=O)N[C@@H](CCc1ccccc1)CNc1ccc(N2CCCCC2)cc1
9 | 3360 nM | O=C(N[C@H](CC1C=Nc2ccccc21)C(=O)N[C@@H](CCc1ccccc1)CNc1ccc(N2CCCCC2)cc1)OCc1ccccc1 (stereo not given in full)
10 | 658 nM | CC(C)C[C@@H](NC(=O)OCc1ccccc1)C(=O)N[C@@H](CCc1ccccc1)CNc1ccc(N2CCCCC2)cc1

Molecular target: T1, Procathepsin L (Homo sapiens, UniProt P07711)
T1 sequence (P07711 whole entry): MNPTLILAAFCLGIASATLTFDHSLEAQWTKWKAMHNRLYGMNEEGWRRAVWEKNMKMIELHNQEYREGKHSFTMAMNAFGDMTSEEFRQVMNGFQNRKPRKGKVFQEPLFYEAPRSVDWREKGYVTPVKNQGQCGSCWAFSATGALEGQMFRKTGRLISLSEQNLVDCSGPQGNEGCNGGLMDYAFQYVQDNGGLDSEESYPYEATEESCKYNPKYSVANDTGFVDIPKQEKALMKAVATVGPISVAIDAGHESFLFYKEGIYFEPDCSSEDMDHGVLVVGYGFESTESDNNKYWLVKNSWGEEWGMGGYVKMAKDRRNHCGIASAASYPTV
Assay: Inhibitory activity against recombinant human cathepsin L
Conditions: not given

Row | IC50 | Compound
11 | 1 nM | O=C(N[C@H](Cc1ccccc1)C(=O)N[C@@H](CCc1ccccc1)CNc1ccc(N2CCCCC2)cc1)OCc1ccccc1
12 | 1 nM | O=C(N[C@H](Cc1ccc(O)cc1)C(=O)N[C@@H](CCc1ccccc1)CNc1ccc(N2CCCCC2)cc1)OCc1ccccc1
13 | 9 nM | O=C(N[C@H](CCc1ccccc1)C(=O)N[C@@H](CCc1ccccc1)CNc1ccc(N2CCCCC2)cc1)OCc1ccccc1
14 | 2 nM | CC(C)C[C@H](NC(=O)OCc1ccccc1)C(=O)N[C@H](CNc1ccc(N2CCOCC2)cc1)Cc1ccccc1
15 | > 10000 nM | O=C(CNC(=O)OCc1ccccc1)N[C@@H](CCc1ccccc1)CNc1ccc(N2CCCCC2)cc1
16 | 7840 nM | O=C(N[C@@H](CCc1ccccc1)CNc1ccc(N2CCCCC2)cc1)C1CCCN1C(=O)OCc1ccccc1 (stereo not given in full)
17 | 1 nM | CC(C)[C@@H](NC(=O)OCc1ccccc1)C(=O)N[C@@H](CCc1ccccc1)CNc1ccc(N2CCCCC2)cc1
18 | 32 nM | CC(C)C[C@H](NC(=O)OCc1ccccc1)C(=O)N[C@H](CNc1ccc(-c2ccccc2)cc1)Cc1ccccc1
19 | 36 nM | CSCC[C@@H](NC(=O)OCc1ccccc1)C(=O)N[C@@H](CCc1ccccc1)CNc1ccc(N2CCCCC2)cc1
20 | 4110 nM | C[C@@H](NC(=O)OCc1ccccc1)C(=O)N[C@@H](CCc1ccccc1)CNc1ccc(N2CCCCC2)cc1
21 | 2 nM | CC(C)C[C@H](NC(=O)OCc1ccccc1)C(=O)N[C@H](CNc1ccc(N2CCCCC2)cc1)Cc1ccccc1
22 | 1 nM | O=C(N[C@H](CC1C=Nc2ccccc21)C(=O)N[C@@H](CCc1ccccc1)CNc1ccc(N2CCCCC2)cc1)OCc1ccccc1 (stereo not given in full)
23 | 2 nM | CC(C)C[C@@H](NC(=O)OCc1ccccc1)C(=O)N[C@@H](CCc1ccccc1)CNc1ccc(N2CCCCC2)cc1
24 | 230 nM | CC(C)C[C@H](NC(=O)OCc1ccccc1)C(=O)N[C@H](CNc1ccccc1)Cc1ccccc1
25 | 1.3 nM | CSCC[C@@H](C=O)NC(=O)[C@H](CC(C)C)NC(=O)OCc1ccccc1 (Cbz-Leu-Met-aldehyde)
26 | 20 nM | CC(C)C[C@H](NC(=O)OCc1ccccc1)C(=O)N[C@H](C=O)Cc1ccccc1 (Cbz-Leu-Phe-aldehyde)

Molecular target: T2, Cathepsin K (Homo sapiens, UniProt P43235)
T2 sequence (P43235 whole entry): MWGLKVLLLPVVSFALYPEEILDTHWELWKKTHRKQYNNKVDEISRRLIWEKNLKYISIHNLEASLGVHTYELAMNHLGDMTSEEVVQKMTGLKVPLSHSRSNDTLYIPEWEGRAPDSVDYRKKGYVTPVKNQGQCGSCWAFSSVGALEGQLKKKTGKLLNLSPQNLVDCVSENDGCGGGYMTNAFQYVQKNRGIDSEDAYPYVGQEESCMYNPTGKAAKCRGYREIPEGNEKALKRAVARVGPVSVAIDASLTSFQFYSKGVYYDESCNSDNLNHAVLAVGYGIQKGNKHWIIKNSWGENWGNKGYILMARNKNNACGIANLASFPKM
Assay: Inhibitory activity against recombinant human cathepsin K
Conditions: not given

Row | IC50 | Compound
27 | 3 nM | O=C(N[C@H](Cc1ccccc1)C(=O)N[C@@H](CCc1ccccc1)CNc1ccc(N2CCCCC2)cc1)OCc1ccccc1
28 | 8 nM | O=C(N[C@H](Cc1ccc(O)cc1)C(=O)N[C@@H](CCc1ccccc1)CNc1ccc(N2CCCCC2)cc1)OCc1ccccc1
29 | 14 nM | O=C(N[C@H](CCc1ccccc1)C(=O)N[C@@H](CCc1ccccc1)CNc1ccc(N2CCCCC2)cc1)OCc1ccccc1
30 | 15 nM | CC(C)C[C@H](NC(=O)OCc1ccccc1)C(=O)N[C@H](CNc1ccc(N2CCOCC2)cc1)Cc1ccccc1
31 | > 10000 nM | O=C(CNC(=O)OCc1ccccc1)N[C@@H](CCc1ccccc1)CNc1ccc(N2CCCCC2)cc1
32 | 12 nM | O=C(N[C@@H](CCc1ccccc1)CNc1ccc(N2CCCCC2)cc1)C1CCCN1C(=O)OCc1ccccc1 (stereo not given in full)
33 | 4 nM | CC(C)[C@@H](NC(=O)OCc1ccccc1)C(=O)N[C@@H](CCc1ccccc1)CNc1ccc(N2CCCCC2)cc1
34 | 706 nM | CC(C)C[C@H](NC(=O)OCc1ccccc1)C(=O)N[C@H](CNc1ccc(-c2ccccc2)cc1)Cc1ccccc1
35 | 3 nM | CSCC[C@@H](NC(=O)OCc1ccccc1)C(=O)N[C@@H](CCc1ccccc1)CNc1ccc(N2CCCCC2)cc1
36 | 9 nM | C[C@@H](NC(=O)OCc1ccccc1)C(=O)N[C@@H](CCc1ccccc1)CNc1ccc(N2CCCCC2)cc1
37 | 10 nM | CC(C)C[C@H](NC(=O)OCc1ccccc1)C(=O)N[C@H](CNc1ccc(N2CCCCC2)cc1)Cc1ccccc1
38 | 48 nM | O=C(N[C@H](CC1C=Nc2ccccc21)C(=O)N[C@@H](CCc1ccccc1)CNc1ccc(N2CCCCC2)cc1)OCc1ccccc1 (stereo not given in full)
39 | 5 nM | CC(C)C[C@@H](NC(=O)OCc1ccccc1)C(=O)N[C@@H](CCc1ccccc1)CNc1ccc(N2CCCCC2)cc1
40 | 1100 nM | CC(C)C[C@H](NC(=O)OCc1ccccc1)C(=O)N[C@H](CNc1ccccc1)Cc1ccccc1

Molecular target: T1, Procathepsin L
Assay: Inhibitory activity against recombinant human cathepsin L (1.2 nM)
Conditions: not given

Row | IC50 | Compound
41 | 5 nM | CSCC[C@@H](C=O)NC(=O)[C@H](CC(C)C)NC(=O)OCc1ccccc1 (Cbz-Leu-Met-aldehyde)

Species: Homo sapiens
Assay: Inhibitory activity against bone resorption in human
Format: functional
Conditions: Bone element

Row | IC50 | Compound
42 | 560 nM | CC(C)[C@@H](NC(=O)OCc1ccccc1)C(=O)N[C@@H](CCc1ccccc1)CNc1ccc(N2CCCCC2)cc1
43 | 1000 nM | CC(C)C[C@H](NC(=O)OCc1ccccc1)C(=O)N[C@H](CNc1ccc(N2CCCCC2)cc1)Cc1ccccc1

Species: Mus musculus
Assay: Inhibitory activity against bone resorption in mouse
Format: functional
Conditions: not given

Row | IC50 | Compound
44 | 330 nM | CC(C)[C@@H](NC(=O)OCc1ccccc1)C(=O)N[C@@H](CCc1ccccc1)CNc1ccc(N2CCCCC2)cc1
45 | 1000 nM | CC(C)C[C@H](NC(=O)OCc1ccccc1)C(=O)N[C@H](CNc1ccc(N2CCCCC2)cc1)Cc1ccccc1
